The conditions of series [1]: cited from earlier work.
Series [2] in a line: Evaluation of hygroscopicity (dynamic steam adsorption/desorption). It is filed as physicochemical. How it is done: Approximately 10 mg of a sample was placed in an exclusively-used quartz-made holder and measured under the conditions of a temperature: 25° C., a measurement range: relative humidity 5 to 95%, a measurement interval: relative humidity 5%. Furthermore, the handling of the devices including data processing was conducted in accordance to the methods and procedures as indicated in each device. (Device: dynamic steam adsorption/desorption measuring device SGA-100, manufactured by VTI).
Measuring temperature: 25° C.; drying before measurement: not done; humidity at the beginning: 5% RH; maximum humidity: 95% RH; humidity at the end: 5% RH; step: 5% RH; equilibrium standard: 0.03 wt % in 5 min; maximum equilibrated time: 180 min; sampling interval: 20 sec; data recording interval: 1 min

Series [3] can be described thus: Evaluation of stability (residual ratio of compound A after storage, HPLC-UV). It is filed as physicochemical. How it is done:
Evaluation of the decomposed product during storage: Approximately 5 mg of a sample was metered into a 10 mL glass mass flask, and a test was carried out in the following storage conditions.
Condition 1: 40° C.—relative humidity 75%—opening—3 months
Condition 2: 70° C.—light shielding—sealing—2 weeks
Condition 3: 25° C.—D65 (1000 lux)—sealing—2 weeks
A dissolution solvent was filled to a marked line in a mess flask including the sample after storage, the dissolved solution was taken as a sample solution, and the compound A in the sample solution was quantified. Furthermore, the detection of the compound A was carried out with UV at 254 nm and the handling of the devices including data processing was conducted in accordance to the methods and procedures as indicated in each device. (Device: LC-1100 Series manufactured by Agilent).
Further, the quantitative value indicates the residual ratio of the compound A after the test to the compound A before the test.

Series [4] relates to L5/L6 spinal nerve ligation models. Briefly: L5/L6 spinal nerve ligation model of neuropathic pain, von Frey Test. It is filed as in vivo, male SD rats. How it is done: The evaluation of an analgesic effect on neuropathic pain was performed according to the method of Kim et al. using L5/L6 spinal nerve ligation models. That is, the left L5 and L6 […] nerves of male SD rats were tightly ligated with a silk thread under pentobarbital anesthesia, and thereafter, the evaluation was performed. As the assessment of pain behavior, a von Frey Test on the plantar surface of the animals was employed (Pain, 1992, Vol. 50, p. 355-363). That is, the plantar surface of the operated limb of the nerve ligation rat was stimulated by using von Frey filaments until a withdrawal response was observed, and the lowest amount of force (g) required to elicit withdrawal response was defined as a pain threshold. The evaluation of compounds was performed in a period between 7 and 14 days after the operation in which a decrease in the threshold was stably observed. On the previous day of the evaluation of compounds, a von Frey Test was performed and the rats were grouped so as to minimize the variation in the mean value of pain threshold. Each of a solvent (vehicle) and a diluted solution obtained by diluting compound A hydrochloride as a compound A with a solvent so as to give a dose of 30 mg/kg was orally administered to rats in each group. Distilled water was used as a solvent. A pain threshold was measured at 1 hour after administration. […]

The mark [5] stands for this setting: 25° C., relative humidity 5 to 95%.
The mark [6] stands for this setting: Condition 1: 40° C., relative humidity 75%, opening, 3 months.
Where [7] appears, read: Condition 2: 70° C., light shielding, sealing, 2 weeks.
Where [8] appears, read: Condition 3: 25° C., D65 (1000 lux), sealing, 2 weeks.

Where “and” joins values, the source holds several entries; their conditions need not be identical. Equal values may be shown once. Where a name gives a salt, the structure may show the parent alone. Read-outs that look alike come from different tables or passages of the source.

`C1=Cc2cccc(OCC3CNCCO3)c2C1.Cl` (racemic) [Indeloxazine hydrochloride]: the “Stability under normal conditions” value in series [1] (room temperature, tightly closed, light shielding, 36 months) was “stable”. Moreover, in series [1] (stored at relative humidity 93% for 14 days at around room temperature), the “Weight increase by hygroscopicity” value was “substantially no weight increase”.

For `C1=Cc2cccc(OCC3CNCCO3)c2C1` (single isomer, unassigned; (+)) [Hydrochloride, (+)-2-[(inden-7-yloxy)methyl]morpholine], in series [2] (25° C., FIG. 1), the “Relative humidity from which remarkably hygroscopic” value was “around 75%”. In addition, the “Deliquescence accompanying weight change” value in series [2] (setting [5]) is reported as “accompanied by deliquescence”. Also, the “Weight change(%)” value in series [2] (setting [5]) is reported as 48.5 (accompanied %; in series [2] (25° C., relative humidity 5 to 95%, listed as hydrochloride of the compound A) it was 50%. The “Relative humidity at which deliquescent” value in series [2] (room temperature) is listed as “approximately 75%”. For the same compound, the “Quantitative Values (%) (residual ratio of the compound A)” value in series [3] (setting [6]) is recorded as 55%; in series [3] (setting [7]) it was 100%; in series [3] (setting [8]), 52%. Further, the “Effect on pain threshold of operated side paw” value in series [4] (30 mg/kg orally) is listed as “improved the pain threshold in the operated side of paw to the same level as that in the normal paw”. Moreover, the “% Effect (recovery ratio of pain threshold)” value in series [4] (30 mg/kg, p.o., 1 hour after administration, mean ± SEM, normal side paw 100%, operated side paw 0%) is 94.5 ± 17.0 %.

As for `C1=Cc2cccc(OC[C@H]3CNCCO3)c2C1.O=S(=O)(O)c1ccccc1` [Benzenesulfonate (α), (R)-2-[(1H-inden-7-yloxy)methyl]morpholine benzenesulfonate], in series [2] (setting [5]), the “Weight change(%)” value is given as less than 0.1%. In series [3] (benzenesulfonate), the “Quantitative Values (%) (residual ratio of the compound A)” value was 101% and 100% and 94%.

Take `C1=Cc2cccc(OC[C@H]3CNCCO3)c2C1.O=S(=O)(O)c1ccccc1` [Benzenesulfonate (β)]: the “Weight change(%)” value in series [2] (setting [5]) is reported as 1.2%. The “Quantitative Values (%) (residual ratio of the compound A)” value in series [3] was 95% and 84% and 74%.

As for `Br.C1=Cc2cccc(OC[C@H]3CNCCO3)c2C1` [Hydrobromide (α)], in series [2] (setting [5]), the “Weight change(%)” value was found to be 12.5%. Moreover, the “Quantitative Values (%) (residual ratio of the compound A)” value in series [3] (setting [6]) is listed as 98%; in series [3] (setting [7]), 97%; in series [3] (setting [8]), 69%.

Consider `C1=Cc2cccc(OC[C@H]3CNCCO3)c2C1.O=S(=O)(O)c1ccccc1` [benzenesulfonate], for which the “Weight change(%)” value in series [2] is reported as “substantially no weight change”.

The values above are taken from patent US20110166348A1, “NOVEL SALT OF MORPHOLINE DERIVATIVE” (ASTELLAS PHARMA INC., priority 2008, published 2011).
